In patent EP2042491A1, “Pyridazines as fungicides” (Bayer CropScience AG, priority 2007, dated 2009):
Read-outs that look alike come from different tables or passages of the source.

Experiments:
[1] = for logP^a): HPLC on reversed-phase C18, 40°C, 0.1% aqueous formic acid / acetonitrile, linear gradient 10-95% acetonitrile
Botrytis cinerea = Botrytis cinerea test (bean) / protective; format: in vivo; details: 100 ppm active compound; protective spray on young bean plants; lesion size evaluated 2 days after inoculation; 0% = as control, 100% = no infection
Source text: (§1) Zur Herstellung einer zweckmäßigen Wirkstoffzubereitung vermischt man 1 Gewichtsteil Wirkstoff mit den angegebenen Mengen Lösungsmittel und Emulgator und verdünnt das Konzentrat mit Wasser auf die gewünschte Konzentration.
Zur Prüfung auf protektive Wirksamkeit werden junge Pflanzen mit der Wirkstoffzubereitung in der angegebenen Aufwandmenge besprüht. Nach Antrocknen des Spritzbelages werden auf jedes Blatt 2 kleine mit Botrytis cinerea bewachsene Agarstückchen aufgelegt. Die inokulierten Pflanzen werden in einer abgedunkelten Kammer bei ca. 20 °C und 100% relativer Luftfeuchtigkeit aufgestellt.
2 Tage nach der Inokulation wird die Größe der Befallsflecken auf den Blättern ausgewertet. Dabei bedeutet 0% ein Wirkungsgrad, der demjenigen der Kontrolle entspricht, während ein Wirkungsgrad von 100% bedeutet, daß kein Befall beobachtet wird.

Septoria tritici = Septoria tritici test (wheat) / protective; format: in vivo; details: 1000 ppm active compound; protective spray on young wheat plants; evaluated 21 days after inoculation; 0% = as control, 100% = no infection
Source text: as §1
(§2) Zur Prüfung auf protektive Wirksamkeit werden junge Pflanzen mit der Wirkstoffzubereitung in der angegebenen Aufwandmenge besprüht. Nach Antrocknen des Spritzbelages werden die Pflanzen mit einer Sporensuspension von Septoria tritici besprüht. Die Pflanzen verbleiben 48 Stunden bei 20 °C und 100 % relativer Luftfeuchtigkeit in einer Inkubationskabine.
Die Pflanzen werden in einem Gewächshaus bei einer Temperatur von ca. 15 °C und einer relativen Luftfeuchtigkeit von 80 % aufgestellt.
21 Tage nach der Inokulation erfolgt die Auswertung. Dabei bedeutet 0% ein Wirkungsgrad, der demjenigen der Kontrolle entspricht, während ein Wirkungsgrad von 100% bedeutet, daß kein Befall beobachtet wird.

Leptosphaeria nodorum = Leptosphaeria nodorum test (wheat) / protective; format: in vivo; details: 1000 ppm active compound; protective spray on young wheat plants; evaluated 10 days after inoculation; 0% = as control, 100% = no infection
Source text: as §1
as §2, with “Leptosphaeria nodor um” for “Septoria tritici”
Die Pflanzen werden in einem Gewächshaus bei einer Temperatur von ca. 20 °C und einer relativen Luftfeuchtigkeit von 80 % aufgestellt.
(§3) 10 Tage nach der Inokulation erfolgt die Auswertung. Dabei bedeutet 0% ein Wirkungsgrad, der demjenigen der Kontrolle entspricht, während ein Wirkungsgrad von 100% bedeutet, daß kein Befall beobachtet wird.

Venturia inaequalis = Venturia inaequalis test (apple) / protective; format: in vivo; details: 100 ppm active compound; protective spray on young apple plants; evaluated 10 days after inoculation; 0% = as control, 100% = no infection
Source text: as §1
Zur Prüfung auf protektive Wirksamkeit werden junge Pflanzen mit der Wirkstoffzubereitung in der angegebenen Aufwandmenge besprüht. Nach Antrocknen des Spritzbelages werden die Pflanzen mit einer wäßrigen Konidiensuspension des Apfelschorferregers Venturia inaequalis inokuliert und verbleiben dann 1 Tag bei ca. 20 °C und 100% relativer Luftfeuchtigkeit in einer Inkubations-kabine.
Die Pflanzen werden dann im Gewächshaus bei ca. 21 °C und einer relativen Luftfeuchtigkeit von ca. 90% aufgestellt.
as §3

Pyricularia oryzae = format: in vivo; details: 500 ppm active compound; protective spray on young rice plants; evaluated 7 days after inoculation; 0% = as control, 100% = no infection
Alternaria solani = format: in vivo; details: 168 h, 500 ppm
Protocol: as §1
Zur Prüfung auf protektive Wirksamkeit bespritzt man junge Tomatenpflanzen mit der Wirkstoffzubereitung in der angegebenen Aufwandmenge. 1 Tag nach der Behandlung werden die Pflanzen mit einer Sporensuspension von Alternaria solani inokuliert und stehen dann 24h bei 100% rel. Feuchte und 20°C. Anschließend stehen die Pflanzen bei 96% rel. Luftfeuchtigkeit und einer Temperatur von 20 C.
7 Tage nach der Inokulation erfolgt die Auswertung. Dabei bedeutet 0 % ein Wirkungsgrad, der demjenigen der Kontrolle entspricht, während ein Wirkungsgrad von 100 % bedeutet, dass kein Befall beobachtet wird.

Sphaerotheca fuliginea = Sphaerotheca fuliginea test (cucumber) / protective; format: in vivo; details: 500 ppm active compound; protective spray on young cucumber plants; evaluated 7 days after inoculation; 0% = as control, 100% = no infection
Source text: as §1
Zur Prüfung auf protektive Wirksamkeit bespritzt man junge Gurkenpflanzen mit der Wirkstoffzubereitung in der angegebenen Aufwandmenge. 1 Tag nach der Behandlung werden die Pflanzen mit einer Sporensuspension von Sphaerotheca fuliginea inokuliert. Anschließend werden die Pflanzen in einem Gewächshaus bei 70 % relativer Luftfeuchtigkeit und einer Temperatur von 23 °C aufgestellt.
7 Tage nach der Inokulation erfolgt die Auswertung. Dabei bedeutet 0 % ein Wirkungsgrad, der demjenigen der Kontrolle entspricht, während ein Wirkungsgrad von 100 % bedeutet, daß kein Befall beobachtet wird.

`CCOC(=O)/C(C)=N\N(Cc1ccccc1)C(=O)Cc1c(F)cccc1Cl` [V-1, Ethyl (2Z)-2-{benzyl[(2-chlor-6-fluorphenyl)acetyl] hydrazono}propanoat] showed a logP ([1]; given in the running text of the preparation examples; method presumably as footnote a) of the tables) of 3.87.
In the case of `Cc1nnc(Cl)c(-c2c(F)cccc2Cl)c1N1CCC(C)CC1` [1-93, 3-Chlor-4-(2-chlor-6-fluorphenyl)-6-methyl-5-(4-methylpiperidin-1-yl)pyridazin], the chromatographic logP (physchem) is reported as 4.11, the Wirkungsgrad (Botrytis cinerea) is reported as ≥ 70% and the Wirkungsgrad (Septoria tritici) is reported as ≥ 70%. For the same compound, the Wirkungsgrad (Leptosphaeria nodorum) was ≥ 70%, the “logP^a)” value ([1]; Table 1) was 4,11 and the Wirkungsgrad (Venturia inaequalis) was ≥ 70%. For the same compound, the Wirkungsgrad (Pyricularia oryzae) was ≥ 70% and the Wirkungsgrad (Alternaria solani) was ≥ 70%.
With `Cc1nnc(Cl)c(-c2c(F)cccc2Cl)c1OC1CCCCC1` [2-59] the chromatographic logP (physchem) was 4.25, the Wirkungsgrad (Sphaerotheca fuliginea) was ≥ 70% and the Wirkungsgrad (Pyricularia oryzae) was ≥ 70%.
In the case of `Cc1nnc(Cl)c(-c2c(F)cccc2Cl)c1Sc1ccc(Cl)cc1` [3-33, 3-Chlor-4-(2-chlor-6-fluorphenyl)-5-(4-chlorphenylsulfanyl)-6-methylpyridazin], the chromatographic logP (physchem) is reported as 4.65 and the “logP^a)” value ([1]; Table 3) is reported as 4,65.
For `Cc1nnc(Cl)c(-c2c(F)cccc2Cl)c1Oc1ccc(Cl)cc1` [2-61, 3-Chlor-4-(2-chlor-6-fluorphenyl)-5-(4-chlorphenoxy)-6-methylpyridazin], the Wirkungsgrad (Septoria tritici) was ≥ 70%, the Wirkungsgrad (Leptosphaeria nodorum) was ≥ 70% and the “logP^a)” value ([1]; Table 2) was 4,13. For the same compound, the Wirkungsgrad (Venturia inaequalis) was ≥ 70%.
In the case of `Cc1nnc(Cl)c(-c2c(F)cccc2Cl)c1N[C@H](C)C(C)C` [1-100], the chromatographic logP (physchem) is reported as 3.22, the Wirkungsgrad (Sphaerotheca fuliginea) is reported as ≥ 70% and the Wirkungsgrad (Pyricularia oryzae) is reported as ≥ 70%. The Wirkungsgrad (Alternaria solani) was ≥ 70%.
With `Cc1nnc(Cl)c(-c2c(F)cccc2Cl)c1NC(C)C(C)C` (racemic) [1-82] the chromatographic logP (physchem) was 3.21.
Work on `Cc1nnc(Cl)c(-c2c(F)cccc2Cl)c1Sc1ccc(Cl)cc1Cl` [3-39] yielded a chromatographic logP (physchem) of 4.87.
